ChEMBL document CHEMBL1125236 (J Med Chem, 1991)

Tests used:
[1] = Compound was evaluated for growth inhibition of WI-L2 cells.; assay type: functional, cell-based; details: Homo sapiens, WIL2
L1210 [2] = assay: Antitumor activity (T/C) evaluated against L1210 leukemia from the median survival time of treated mice (T) over that of control mice (C) at a dose of 16 mg/kg; assay type: functional, Mus musculus
L1210 [3] = assay: In vivo activity against L1210 leukemia cells in mice at a dose of 32 mg/kg and expressed as percent weight change after 7 days; assay type: functional, Mus musculus
L1210 [4] = assay: In vivo activity against L1210 leukemia cells in mice at a dose of 8 mg/kg and expressed as percent weight change after 7 days; assay type: functional, Mus musculus
L1210 [5] = assay: In vivo activity against L1210 leukemia cells in mice at a dose of 8 mg/kg and expressed as Survival median in days; assay type: functional, Mus musculus
L1210 [6] = assay: Compound was evaluated for the growth inhibition of L1210 cells.; assay type: functional, cell-based; details: Mus musculus
L1210 [7] = assay: In vivo activity against L1210 leukemia cells in mice at a dose of 32 mg/kg and expressed as Survival range in days; assay type: functional, Mus musculus
L1210 [8] = assay: Antitumor activity (T/C) evaluated against L1210 leukemia from the median survival time of treated mice (T) over that of control mice (C) at a dose of 32 mg/kg; assay type: functional, Mus musculus
L1210 [9] = assay: In vivo activity against L1210 leukemia cells in mice at a dose of 16 mg/kg and expressed as Survival median in days; assay type: functional, Mus musculus
L1210 [10] = assay: In vivo activity against L1210 leukemia cells in mice at a dose of 8 mg/kg and expressed as Survival range in days; assay type: functional, Mus musculus
L1210 [11] = assay: In vivo activity against L1210 leukemia cells in mice at a dose of 32 mg/kg and expressed as Survival median in days; assay type: functional, Mus musculus
L1210 [12] = assay: In vivo activity against L1210 leukemia cells in mice at a dose of 16 mg/kg and expressed as percent weight change after 7 days; assay type: functional, Mus musculus
L1210 [13] = assay: In vivo activity against L1210 leukemia cells in mice at a dose of 16 mg/kg and expressed as Survival range in days; assay type: functional, Mus musculus
L1210 [14] = assay: Antitumor activity (T/C) evaluated against L1210 leukemia from the median survival time of treated mice (T) over that of control mice (C) at a dose of 8 mg/kg; assay type: functional, Mus musculus
Dihydrofolate reductase = target: T1, Dihydrofolate reductase (Homo sapiens, UniProt P00374)
T1 sequence (P00374 whole entry): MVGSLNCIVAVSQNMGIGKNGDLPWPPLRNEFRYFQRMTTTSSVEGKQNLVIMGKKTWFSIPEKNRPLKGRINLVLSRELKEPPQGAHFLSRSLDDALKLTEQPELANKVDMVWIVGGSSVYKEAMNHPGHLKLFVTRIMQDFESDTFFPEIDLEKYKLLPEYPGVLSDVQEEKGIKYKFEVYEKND
Description: Inhibition of dihydrofolate reductase (DHFR) from human cells (WI-L2/M4).

SMILES | IC50 [1] | T/C (L1210 [2]) | weight change % (L1210 [3]) | weight change % (L1210 [4]) | Survival median (L1210 [5]) | IC50 (L1210 [6]) | Survival range (L1210 [7]) | T/C (L1210 [8]) | Survival median (L1210 [9]) | Survival range (L1210 [10]) | Survival median (L1210 [11]) | weight change % (L1210 [12]) | Survival range (L1210 [13]) | T/C (L1210 [14]) | IC50 (Dihydrofolate reductase)
Nc1nc(N)c2nc(CNc3ccc(C(=O)N[C@@H](CCC(=O)O)C(=O)O)cc3)cnc2n1 [AMINOPTERIN] | 7.1 nM | – | – | – | – | – | – | – | – | – | – | – | – | – | –
CN(Cc1cnc2nc(N)nc(N)c2n1)c1ccc(C(=O)NC(CCC(=O)Nc2cccc(B(O)O)c2)C(=O)O)cc1 (stereo not drawn) | – | 150% | 5% | 8% | 11 days | 0.7 nM | 12 days | 175% | 12 days | 9 days | 14 days | 4% | 11 days | 138% | 30 nM
Nc1nc(N)c2nc(CNc3ccc(C(=O)NC(CCC(=O)Nc4cccc(C(=O)O)c4)C(=O)O)cc3)cnc2n1 (stereo not drawn) | 6.1 nM | – | – | – | – | 25 nM | – | – | – | – | – | – | – | – | 32 nM
